From patent US20240101572A1, “DIHYDROOXADIAZINONE COMPOUND AND PHARMACEUTICAL USE THEREOF” (Japan Tobacco Inc., priority 2022, published 2024)
Where two headings read alike, the source gives them in different places.

Experiments:
[1] = molecular target: full-length human PLD1 (Homo sapiens (Human), UniProt Q13393); assay: Evaluation of human PLD1 enzyme inhibitory activity (Amplex Red / choline oxidase fluorescence); type: biochemical
How it was run: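 Fluorescence read-out couples choline to Amplex Red via choline oxidase and peroxidase after a 60 min room-temperature reaction. Enzyme: FLAG-tagged full-length human PLD1 from Expi293F cells, anti-FLAG purified; substrate diheptanoyl phosphatidylcholine; HEPES pH 7.5 assay buffer with 0.01% NP-40, 0.1% BSA, 5% DMSO final.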

[2] = molecular target: full-length human PLD2 (Homo sapiens (Human), UniProt O14939); assay: Evaluation of human PLD2 enzyme inhibitory activity (Amplex Red / choline oxidase fluorescence); type: biochemical
How it was run: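 Released choline was read by Amplex Red fluorescence coupled to choline oxidase and HRP after a 60 min room-temperature reaction. Substrate was diheptanoyl phosphatidylcholine, added as a 6 mmol/L solution, and enzyme was FLAG-tagged full-length human PLD2 from Expi293F, added as a 6 nmol/L solution. Buffer was 50 mM HEPES pH 7.5 with 5% final DMSO.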

[3] = full-length human PLD1 enzyme, read-out: PLD1 IC50
[4] = full-length human PLD2 enzyme, read-out: PLD2 IC50

Chain of full-length human PLD1 (Q13393 other isoform, or with tags, fused parts or gaps): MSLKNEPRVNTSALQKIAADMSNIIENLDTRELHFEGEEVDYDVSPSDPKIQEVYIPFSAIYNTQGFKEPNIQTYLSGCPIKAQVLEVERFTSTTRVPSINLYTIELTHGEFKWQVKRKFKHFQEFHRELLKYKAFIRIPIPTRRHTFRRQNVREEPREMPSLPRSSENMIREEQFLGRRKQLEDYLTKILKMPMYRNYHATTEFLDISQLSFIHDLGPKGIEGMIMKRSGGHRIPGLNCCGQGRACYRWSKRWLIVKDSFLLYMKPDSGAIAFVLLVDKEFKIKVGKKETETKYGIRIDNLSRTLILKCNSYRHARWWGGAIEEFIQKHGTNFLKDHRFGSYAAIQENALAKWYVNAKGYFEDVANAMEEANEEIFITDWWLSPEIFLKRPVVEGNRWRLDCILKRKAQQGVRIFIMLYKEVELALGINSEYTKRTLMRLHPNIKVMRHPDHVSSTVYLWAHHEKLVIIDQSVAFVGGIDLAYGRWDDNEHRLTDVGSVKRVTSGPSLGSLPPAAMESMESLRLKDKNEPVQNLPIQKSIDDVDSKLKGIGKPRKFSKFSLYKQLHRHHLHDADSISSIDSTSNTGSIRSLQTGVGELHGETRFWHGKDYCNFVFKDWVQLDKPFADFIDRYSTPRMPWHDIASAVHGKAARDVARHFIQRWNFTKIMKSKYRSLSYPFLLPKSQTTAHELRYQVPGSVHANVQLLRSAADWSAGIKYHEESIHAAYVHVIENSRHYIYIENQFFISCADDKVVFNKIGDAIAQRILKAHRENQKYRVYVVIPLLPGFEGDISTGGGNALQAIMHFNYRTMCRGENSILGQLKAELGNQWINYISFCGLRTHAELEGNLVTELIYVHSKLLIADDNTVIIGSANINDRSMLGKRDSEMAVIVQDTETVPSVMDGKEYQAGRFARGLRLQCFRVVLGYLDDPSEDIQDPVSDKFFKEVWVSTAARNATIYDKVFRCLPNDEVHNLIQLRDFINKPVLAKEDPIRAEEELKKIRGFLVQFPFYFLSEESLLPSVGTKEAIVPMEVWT
Chain of full-length human PLD2 (O14939 whole entry): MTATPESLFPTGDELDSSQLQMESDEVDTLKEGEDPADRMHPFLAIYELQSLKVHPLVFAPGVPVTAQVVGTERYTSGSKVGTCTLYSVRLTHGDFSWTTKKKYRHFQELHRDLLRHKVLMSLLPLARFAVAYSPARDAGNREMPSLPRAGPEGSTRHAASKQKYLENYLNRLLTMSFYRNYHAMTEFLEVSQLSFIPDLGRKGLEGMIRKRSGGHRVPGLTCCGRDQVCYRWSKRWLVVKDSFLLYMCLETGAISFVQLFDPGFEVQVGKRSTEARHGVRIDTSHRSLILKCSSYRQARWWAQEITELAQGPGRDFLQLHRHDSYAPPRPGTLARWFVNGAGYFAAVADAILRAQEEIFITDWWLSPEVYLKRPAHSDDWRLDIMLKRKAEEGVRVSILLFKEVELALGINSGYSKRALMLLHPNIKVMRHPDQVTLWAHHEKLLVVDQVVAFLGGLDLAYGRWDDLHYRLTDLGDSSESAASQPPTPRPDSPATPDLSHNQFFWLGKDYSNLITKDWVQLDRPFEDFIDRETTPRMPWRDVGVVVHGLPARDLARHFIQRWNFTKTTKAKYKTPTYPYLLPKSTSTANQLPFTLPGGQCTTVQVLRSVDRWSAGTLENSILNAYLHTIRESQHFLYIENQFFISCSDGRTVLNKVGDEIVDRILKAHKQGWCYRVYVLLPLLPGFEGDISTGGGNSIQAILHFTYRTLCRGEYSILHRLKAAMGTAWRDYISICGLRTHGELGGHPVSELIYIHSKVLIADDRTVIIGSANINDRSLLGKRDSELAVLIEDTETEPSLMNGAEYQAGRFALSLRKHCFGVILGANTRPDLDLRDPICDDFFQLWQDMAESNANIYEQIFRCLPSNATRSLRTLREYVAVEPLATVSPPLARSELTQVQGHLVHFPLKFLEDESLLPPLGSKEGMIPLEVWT

Structure (SMILES): CNC(=O)C(=O)N[C@@H](C)CN1CCC2(CC1)OC(=O)NN=C2c1ccccc1SC(F)(F)F [Example 2-021]
- IC50 [1, 3]: 27 nM
- IC50 [2, 4]: 15 nM

Structure (SMILES): CNC(=O)C(=O)N[C@@H](C)C[C@H]1CC[C@]2(CC1)OC(=O)NN=C2c1nccn1CC1CC1 [Example 82]
- IC50 [1, 3]: 421 nM
- IC50 [2, 4]: 358 nM

Structure (SMILES): CNC(=O)C(=O)N[C@@H](C)CN1CCC2(CC1)OC(=O)NN=C2c1ccc(F)cc1Cl [Example 90]
- IC50 [1, 3]: 45 nM
- IC50 [2, 4]: 18 nM

Structure (SMILES): Cc1cc(C(=O)N[C@@H](C)CN2CCC3(CC2)OC(=O)NN=C3c2cc(C#N)ccc2Br)[nH]n1 [Example 312]
- IC50 [1, 3]: 29 nM
- IC50 [2, 4]: < 10 nM

Structure (SMILES): CNC(=O)C(=O)N[C@@H](C)C[C@H]1CC[C@]2(CC1)OC(=O)NN=C2c1cnc(N2CCC(F)(F)CC2)cc1Cl [Example 274]
- IC50 [1, 3]: 17 nM
- IC50 [2, 4]: < 10 nM

Structure (SMILES): CC(=O)N[C@@H](C)C[C@H]1CC[C@]2(CC1)OC(=O)NN=C2c1ccc(OC(F)F)cc1Br [Example 141]
- IC50 [1, 3]: 141 nM
- IC50 [2, 4]: 164 nM

Structure (SMILES): [2H]C([2H])([2H])NC(=O)C(=O)N[C@@H](C)C[C@]1(C#N)CC[C@@]2(CC1)OC(=O)NN=C2c1cccc(F)c1Br [Example 2-152]
- IC50 ([1]; column 1 of continuation tables 2-12 to 2-14, read-out: human PLD1 enzyme inhibitory activity IC50): 16 nM
- IC50 ([2]; column 2 of continuation tables 2-12 to 2-14, read-out: human PLD2 enzyme inhibitory activity IC50): < 10 nM

Structure (SMILES): C[C@@H](C[C@H]1CC[C@]2(CC1)OC(=O)NN=C2c1ccc(OC(F)F)cc1Br)NC(=O)c1cc(Cl)n[nH]1 [Example 144]
- IC50 [1, 3]: 11 nM
- IC50 [2, 4]: < 10 nM

Structure (SMILES): C[C@@H](C[C@H]1CC[C@]2(CC1)OC(=O)NN=C2c1ccc(S(C)(=O)=O)cc1Br)NC(=O)c1cc2cc(F)ccc2[nH]1 [Example 32]
- IC50 [1, 3]: 32 nM
- IC50 [2, 4]: < 10 nM

Structure (SMILES): CNC(=O)C(=O)N[C@@H](C)C[C@H]1CC[C@]2(CC1)OC(=O)NN=C2c1cc(OCC(C)(C)O)ccc1Br [Example 2-014]
- IC50 [1, 3]: 22 nM
- IC50 [2, 4]: < 10 nM

Structure (SMILES): Cc1cc(C(=O)N[C@@H](C)C[C@H]2CC[C@]3(CC2)OC(=O)NN=C3c2cccnc2)[nH]n1 [Example 16]
- IC50 [1, 3]: 926 nM
- IC50 [2, 4]: 968 nM

Structure (SMILES): C[C@@H](C[C@H]1CC[C@]2(CC1)OC(=O)NN=C2c1ccc(Br)cc1)NC(=O)c1cc2ccccc2o1 [Example 50]
- IC50 [1, 3]: 33 nM
- IC50 [2, 4]: 51 nM

Structure (SMILES): C[C@@H](C[C@H]1CC[C@]2(CC1)OC(=O)NN=C2c1ccc(C(C)(C)O)cc1Br)NC(=O)c1cc(Cl)no1 [Example 97]
- IC50 [1, 3]: < 10 nM
- IC50 [2, 4]: < 10 nM

Structure (SMILES): C[C@@H](C[C@H]1CC[C@]2(CC1)OC(=O)NN=C2c1cccc(C#N)c1Br)NC(=O)c1cnn(C)c1 [Example 318]
- IC50 [1, 3]: 37 nM
- IC50 [2, 4]: 41 nM

Structure (SMILES): C[C@@H](C[C@H]1CC[C@]2(CC1)OC(=O)NN=C2c1ccc(C#N)cc1Br)NC(=O)N1Cc2ccccc2C1 [Example 109]
- IC50 [1, 3]: 12 nM
- IC50 [2, 4]: < 10 nM

Structure (SMILES): Cc1cc(C(=O)N[C@@H](C)C[C@H]2CC[C@]3(CC2)OC(=O)NN=C3c2cnc(N3CC4CCC(C3)O4)cc2C)[nH]n1 [Example 251]
- IC50 [1, 3]: 17 nM
- IC50 [2, 4]: < 10 nM

Structure (SMILES): Cc1cc(C(=O)N[C@@H](C)C[C@H]2CC[C@]3(CC2)OC(=O)NN=C3c2cnc(Cl)cc2N2CCC(F)(F)C2)[nH]n1 [Example 223]
- IC50 [1, 3]: 396 nM
- IC50 [2, 4]: 246 nM

Structure (SMILES): Cc1cc(C(=O)N[C@@H](C)CN2CCC3(CC2)OC(=O)NN=C3c2ccc(C#N)cc2Br)on1 [Example 2-062]
- IC50 [1, 3]: 25 nM
- IC50 [2, 4]: 25 nM

Structure (SMILES): C[C@@H](CN1CCC2(CC1)OC(=O)NN=C2c1cc(C#N)ccc1Br)NC(=O)c1cn(C)cn1 [Example 2-054]
- IC50 [1, 3]: 37 nM
- IC50 [2, 4]: < 10 nM

Structure (SMILES): C[C@@H](C[C@H]1CC[C@]2(CC1)OC(=O)NN=C2c1ccc(OC(F)(F)F)cc1Br)NC(=O)c1cc(Cl)no1 [Example 81]
- IC50 [1, 3]: 12 nM
- IC50 [2, 4]: < 10 nM

Structure (SMILES): CNC(=O)C(=O)N[C@@H](C)CN1CCC2(CC1)OC(=O)NN=C2c1ccc(Cl)cc1C [Example 216]
- IC50 [1, 3]: 29 nM
- IC50 [2, 4]: 19 nM

Structure (SMILES): CNC(=O)C(=O)N[C@@H](C)C[C@H]1CC[C@]2(CC1)OC(=O)NN=C2c1ccc(F)cc1OC [Example 54]
- IC50 [1, 3]: 20 nM
- IC50 [2, 4]: < 10 nM

Structure (SMILES): CNC(=O)C(=O)N[C@@H](C)CN1CCC2(CC1)OC(=O)NN=C2c1ccc(C#N)cc1C(F)(F)F [Example 327]
- IC50 [1, 3]: 110 nM
- IC50 [2, 4]: 51 nM

Structure (SMILES): CNC(=O)C(=O)N[C@@H](C)C[C@H]1CC[C@]2(CC1)OC(=O)NN=C2c1cnc(C(F)(F)F)cc1C [Example 174]
- IC50 [1, 3]: 42 nM
- IC50 [2, 4]: 17 nM

Structure (SMILES): CNC(=O)C(=O)N[C@@H](C)C[C@H]1CC[C@]2(CC1)OC(=O)NN=C2c1ccc(S(C)(=O)=O)cc1Br [Example 33]
- IC50 [1, 3]: 25 nM
- IC50 [2, 4]: < 10 nM

Structure (SMILES): CNC(=O)C(=O)N[C@@H](C)C[C@H]1CC[C@]2(CC1)OC(=O)NN=C2c1ccnn1C [Example 68]
- IC50 [1, 3]: 2030 nM
- IC50 [2, 4]: 4660 nM
